Experiment: xn = mol fraction of the nth substance listed
Settings: 101.3 kPa, Liquid; for speed of sound: Sing-around technique in a fixed-path interferometer

CCOC(C)(C)C [2-ethoxy-2-methylpropane] + CC(C)(C)O
Settings | mass density, 303.15 K [kg/m3] | mass density, 313.15 K [kg/m3] | mass density, 323.15 K [kg/m3] | speed of sound, 303.15 K [m/s] | speed of sound, 313.15 K [m/s] | speed of sound, 323.15 K [m/s]
x1 = 0.06 | 770.981 | 760.486 | 749.635 | 1085.9 | 1043.4 | 1001.6
x1 = 0.093 | 768.859 | 758.385 | 747.565 | 1079.5 | 1037.4 | 996.19
x1 = 0.2 | 762.345 | 751.936 | 741.141 | 1062.9 | 1021.9 | 980.83
x1 = 0.298 | 757.005 | 746.63 | 735.846 | 1050.7 | 1010.1 | 969.12
x1 = 0.386 | 752.738 | 742.309 | 731.52 | 1041.5 | 1000.3 | 959.27
x1 = 0.488 | 748.226 | 737.777 | 726.96 | 1033.5 | 992.26 | 950.9
x1 = 0.632 | 742.556 | 732.028 | 721.169 | 1024.7 | 982.68 | 940.83
x1 = 0.685 | 740.622 | 730.077 | 719.198 | 1022.1 | 979.93 | 937.72
x1 = 0.796 | 736.85 | 726.255 | 715.369 | 1017.9 | 975.09 | 932.37
x1 = 0.896 | 733.592 | 722.99 | 712.15 | 1014.9 | 971.48 | 928.25
x1 = 0.949 | 731.862 | 721.29 | 710.507 | 1013.4 | 969.31 | 925.71
x1 = 1 | 730.186 | 719.687 | 708.996 | 1010.2 | 965.87 | 922.08

CCOC(C)(C)C [2-ethoxy-2-methylpropane] + CC(C)CC(C)(C)C
Settings | mass density, 288.15 K [kg/m3] | mass density, 298.15 K [kg/m3] | mass density, 323.15 K [kg/m3] | speed of sound, 288.15 K [m/s] | speed of sound, 298.15 K [m/s] | speed of sound, 323.15 K [m/s]
x1 = 0.047 | 697.781 | 689.477 | 668.28 | 1121.2 | 1078.7 | 975.15
x1 = 0.1 | 699.904 | 691.5 | 670.054 | 1118.3 | 1075.5 | 971.5
x1 = 0.204 | 704.01 | 695.429 | 673.45 | 1111.9 | 1068.9 | 964.23
x1 = 0.305 | 708.284 | 699.51 | 677.1 | 1106.8 | 1063.8 | 958.38
x1 = 0.4 | 712.599 | 703.649 | 680.717 | 1101.7 | 1058.5 | 952.41
x1 = 0.508 | 717.689 | 708.525 | 685.059 | 1096.5 | 1053.1 | 946.33
x1 = 0.596 | 722.093 | 712.737 | 688.798 | 1092.5 | 1048.3 | 941.25
x1 = 0.699 | 727.55 | 717.974 | 693.436 | 1088.3 | 1043.8 | 935.64
x1 = 0.788 | 732.615 | 722.843 | 697.73 | 1084.9 | 1040.1 | 931
x1 = 0.902 | 739.579 | 729.56 | 703.808 | 1081.5 | 1036.6 | 927.2
x1 = 0.949 | 742.53 | 732.405 | 706.371 | 1080.5 | 1035.4 | 925.22
x1 = 1 | 745.656 | 735.357 | 709.007 | 1078.9 | 1033.2 | 922.48

CCOC(C)(C)C [2-ethoxy-2-methylpropane] + CCO
Settings | mass density, 288.15 K [kg/m3] | mass density, 298.15 K [kg/m3] | mass density, 323.15 K [kg/m3] | speed of sound, 288.15 K [m/s] | speed of sound, 298.15 K [m/s] | speed of sound, 323.15 K [m/s]
x1 = 0.049 | 790.26 | 781.555 | 759.223 | 1171.4 | 1135.6 | 1048.6
x1 = 0.097 | 786.997 | 778.154 | 755.418 | 1165.8 | 1128.9 | 1038.1
x1 = 0.198 | 780.646 | 771.547 | 748.104 | 1150.9 | 1112.5 | 1018.3
x1 = 0.303 | 774.648 | 765.324 | 741.204 | 1137.4 | 1097.5 | 999.82
x1 = 0.395 | 770.061 | 760.556 | 735.962 | 1127.4 | 1086.4 | 986.27
x1 = 0.504 | 765.017 | 755.325 | 730.194 | 1116.6 | 1074.6 | 971.7
x1 = 0.606 | 760.667 | 750.815 | 725.266 | 1108.4 | 1065.5 | 959.88
x1 = 0.691 | 757.429 | 747.458 | 721.666 | 1101.4 | 1058 | 950.98
x1 = 0.802 | 753.45 | 743.339 | 717.148 | 1094 | 1049.8 | 941.56
x1 = 0.895 | 749.87 | 739.659 | 713.326 | 1087.8 | 1043 | 933.37
x1 = 0.935 | 748.296 | 738.056 | 711.669 | 1084.8 | 1039.8 | 929.43
x1 = 1 | 745.656 | 735.357 | 709.007 | 1078.9 | 1033.2 | 922.48

CCOC(C)(C)C [2-ethoxy-2-methylpropane] + CCc1ccccc1
Settings | mass density, 288.15 K [kg/m3] | mass density, 298.15 K [kg/m3] | mass density, 323.15 K [kg/m3] | speed of sound, 288.15 K [m/s] | speed of sound, 298.15 K [m/s] | speed of sound, 323.15 K [m/s]
x1 = 0.062 | 862.801 | 854.066 | 831.864 | 1341.6 | 1298.5 | 1195.2
x1 = 0.122 | 855.221 | 846.39 | 823.917 | 1324.4 | 1281 | 1177.2
x1 = 0.239 | 840.448 | 831.434 | 808.496 | 1291.1 | 1247.3 | 1142.5
x1 = 0.353 | 826.071 | 816.917 | 793.606 | 1258.9 | 1214.8 | 1109
x1 = 0.455 | 813.347 | 804.045 | 780.291 | 1230.1 | 1185.7 | 1079
x1 = 0.556 | 800.809 | 791.351 | 767.168 | 1201.7 | 1157.1 | 1049.8
x1 = 0.653 | 788.72 | 779.094 | 754.45 | 1174.2 | 1129.3 | 1021.4
x1 = 0.746 | 777.039 | 767.306 | 742.327 | 1148.3 | 1103.2 | 994.59
x1 = 0.834 | 765.895 | 756.026 | 730.658 | 1123.2 | 1077.9 | 968.81
x1 = 0.918 | 755.524 | 745.492 | 719.646 | 1099.7 | 1054 | 944.36
x1 = 0.959 | 750.111 | 740.037 | 714.068 | 1088 | 1042.2 | 932.2
x1 = 1 | 744.955 | 734.806 | 708.642 | 1076.4 | 1031 | 920.73

CCOC(C)(C)C [2-ethoxy-2-methylpropane] + Cc1ccccc1
Settings | mass density, 288.15 K [kg/m3] | mass density, 298.15 K [kg/m3] | mass density, 323.15 K [kg/m3] | speed of sound, 288.15 K [m/s] | speed of sound, 298.15 K [m/s] | speed of sound, 323.15 K [m/s]
x1 = 0.052 | 864.001 | 854.662 | 831.025 | 1332.1 | 1288.3 | 1181.6
x1 = 0.108 | 855.965 | 846.56 | 822.744 | 1315.2 | 1271.3 | 1164
x1 = 0.217 | 840.966 | 831.445 | 807.297 | 1282.6 | 1238.1 | 1130.6
x1 = 0.301 | 829.662 | 820.051 | 795.645 | 1258.9 | 1214.7 | 1106.5
x1 = 0.41 | 815.355 | 805.638 | 780.903 | 1228 | 1183.6 | 1075
x1 = 0.505 | 803.55 | 793.739 | 768.747 | 1202.7 | 1158.1 | 1049.3
x1 = 0.615 | 789.864 | 779.951 | 754.631 | 1173.5 | 1129.1 | 1019.7
x1 = 0.701 | 779.62 | 769.63 | 744.088 | 1151.5 | 1107 | 997.51
x1 = 0.805 | 767.503 | 757.422 | 731.601 | 1125.3 | 1080.5 | 970.75
x1 = 0.897 | 757.112 | 746.951 | 720.871 | 1102.8 | 1058.2 | 948.16
x1 = 0.95 | 751.062 | 740.859 | 714.65 | 1089.8 | 1045 | 934.78
x1 = 1 | 745.656 | 735.357 | 709.007 | 1078.9 | 1033.2 | 922.48

CCOC(C)(C)C [2-ethoxy-2-methylpropane] + c1ccccc1
Settings | mass density, 288.15 K [kg/m3] | mass density, 298.15 K [kg/m3] | mass density, 323.15 K [kg/m3] | speed of sound, 288.15 K [m/s] | speed of sound, 298.15 K [m/s] | speed of sound, 323.15 K [m/s]
x1 = 0.049 | 874.335 | 863.764 | 837.01 | 1327.2 | 1280 | 1165.5
x1 = 0.102 | 864.201 | 853.699 | 827.068 | 1308.3 | 1261.4 | 1147.2
x1 = 0.204 | 846.222 | 835.811 | 809.343 | 1274.8 | 1228.3 | 1114.7
x1 = 0.299 | 830.929 | 820.575 | 794.184 | 1245.6 | 1199.4 | 1086.3
x1 = 0.393 | 816.969 | 806.647 | 780.301 | 1219.1 | 1173 | 1060
x1 = 0.494 | 802.925 | 792.628 | 766.309 | 1192.1 | 1146.5 | 1034.2
x1 = 0.589 | 790.686 | 780.408 | 754.084 | 1168.6 | 1123.6 | 1011.7
x1 = 0.696 | 777.916 | 767.647 | 741.314 | 1143.5 | 1099 | 988.29
x1 = 0.799 | 766.357 | 756.096 | 729.753 | 1120.3 | 1075.7 | 965.1
x1 = 0.906 | 755 | 744.747 | 718.393 | 1097.6 | 1053.3 | 942.92
x1 = 0.953 | 750.242 | 739.991 | 713.647 | 1087.8 | 1044 | 933.45
x1 = 1 | 745.656 | 735.357 | 709.007 | 1078.9 | 1033.2 | 922.48

Reference: the NIST ThermoML archive (doi:10.1016/j.jct.2007.05.005)
